Assay results from US20110055943A1, “NOVEL THERAPEUTIC TARGETS IN INFLAMMATORY BOWEL DISEASE” (SALIX PHARMACEUTICALS, LTD., priority 2007, published 2011).

Legend:
[1] = biological target: T1, human PXR (Homo sapiens, UniProt O75469); test: Cell-based reporter assay, DPX2 (hepG2) cell line, luciferase; conditions: for increase in luciferase activity vs DMSO control: 24 h, DPX2 cells
T1 construct: host or cells: DPX2 (HepG2 derivative)
T1 sequence (O75469 1-434): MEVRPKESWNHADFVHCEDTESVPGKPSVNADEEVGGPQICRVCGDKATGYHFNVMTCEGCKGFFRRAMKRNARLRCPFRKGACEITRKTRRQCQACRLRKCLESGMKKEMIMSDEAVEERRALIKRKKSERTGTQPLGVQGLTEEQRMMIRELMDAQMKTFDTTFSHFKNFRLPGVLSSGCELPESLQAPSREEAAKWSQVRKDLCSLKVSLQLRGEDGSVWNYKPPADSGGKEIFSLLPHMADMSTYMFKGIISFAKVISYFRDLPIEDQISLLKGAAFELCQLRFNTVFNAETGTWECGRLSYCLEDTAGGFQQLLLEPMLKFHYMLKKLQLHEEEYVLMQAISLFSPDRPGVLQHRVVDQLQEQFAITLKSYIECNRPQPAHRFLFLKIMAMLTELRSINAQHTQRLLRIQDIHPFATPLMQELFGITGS
Experimental: A hepG2 cell line (DPX2) with stable expression of recombinant human PXR and a PXR-response element cloned in a luciferase vector was obtained from Puracyp Inc. (Carlsbad, Calif.). […] The cells were seeded according to the distributor's instruction. […] For cell-based reporter assay of nuclear receptors CAR, PPARα, PPARγ, and FXR, HCT116 cells were plated on 24-well plates (5×10^4 cells/well, cultured in DMEM containing 10% FBS), and transfected with the various expression vectors using Fugene transfection reagent (Roche, Indianapolis, Ind.). […] The mouse FXR vector was provided by Dr Christopher J. Sinal. […] A standard dual luciferase assay was used and normalized to a cotransfected control reporter (Promega, Madison, Wis.). Each in vitro assay was repeated at least three times.

[2] = test system: PXR target genes (CYP3A11, GSTA1, MRP2, OATP2); test: qPCR analysis of PXR target genes in Pxr-null mice; format: in vivo
[3] = Serum pharmacokinetics of RIF and RIFax in mice (p.o., i.p., i.v.; LC-MS/MS); format: in vivo
Experimental: The maximum concentration in serum (Cmax) was obtained from the original data. […] Intestinal contents were weighted, and homogenized in methanol (100 mg/ml). The homogenate was centrifuged at 14,000 rpm for 10 min at 4° C.
The mass spectrometer was operated in the turbo ion spray mode with positive ion detection. The turbo ion spray temperature was maintained at 300° C., and a voltage of 4.8 kV was applied to the sprayer needle. N2 was used as the turbo ion spray and nebulizing gas.

[4] = test system: CYP3A4; conditions: two clinical studies; cited from earlier work
[5] = biological target: T2, CAR (Mus musculus, UniProt O35627); test: Cell-based reporter assay, transfected HCT116 cells, dual luciferase; conditions: 10 μM, 24 h
T2 construct: expressed in transfected cells; host or cells: HCT116
T2 sequence (O35627 1-358): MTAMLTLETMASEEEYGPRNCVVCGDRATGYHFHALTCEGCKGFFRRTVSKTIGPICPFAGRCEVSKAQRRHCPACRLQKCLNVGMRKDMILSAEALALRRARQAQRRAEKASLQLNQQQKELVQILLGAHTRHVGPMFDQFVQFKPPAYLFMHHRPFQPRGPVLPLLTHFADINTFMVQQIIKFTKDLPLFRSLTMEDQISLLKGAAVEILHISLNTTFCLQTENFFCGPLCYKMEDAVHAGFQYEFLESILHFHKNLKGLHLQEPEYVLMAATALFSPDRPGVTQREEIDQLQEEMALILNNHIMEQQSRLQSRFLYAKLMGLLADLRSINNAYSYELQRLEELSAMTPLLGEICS
Experimental: A hepG2 cell line (DPX2) with stable expression of recombinant human PXR and a PXR-response element cloned in a luciferase vector was obtained from Puracyp Inc. (Carlsbad, Calif.). The construction and validation of the cell lines were reported previously (Yueh et al., 2005). The cells were seeded according to the distributor's instruction. […] The activation of PXR was determined by measuring the firefly luciferase activity 24 h later, followed by normalization of luciferase activity by protein concentrations. For cell-based reporter assay of nuclear receptors CAR, PPARα, PPARγ, and FXR, HCT116 cells were plated on 24-well plates (5×10^4 cells/well, cultured in DMEM containing 10% FBS), and transfected with the various expression vectors using Fugene transfection reagent (Roche, Indianapolis, Ind.). The mouse PPAR and CAR vectors were described in previous reports (Kliewer et al., 1992; Swales et al., 2005). The mouse FXR vector was provided by Dr Christopher J. Sinal. […] TCPOBOP (250 nM), Wy-14,643 (10 μM), rosiglitazone (10 μM), and GW4064 (25 μM) were used as positive controls respectively for mouse CAR, PPARα, PPARγ, and FXR. A standard dual luciferase assay was used and normalized to a cotransfected control reporter (Promega, Madison, Wis.). Each in vitro assay was repeated at least three times.

[6] = small intestine, 25 mg/kg/day p.o. 3 days

Structure (SMILES): COC1/C=C/OC2(C)Oc3c(C)c(O)c4c(O)c(c5c(nc6cc(C)ccn65)c4c3C2=O)NC(=O)/C(C)=C\C=C\C(C)C(O)C(C)C(O)C(C)C(OC(C)=O)C1C (stereo not drawn) [RIFax, 4-Deoxy-4′-methylpyrido[1′,2′-1,2]imidazo[5,4-c]rifamycin SV]
- increase in luciferase activity vs DMSO control ([1]; 1 μM): 2.1 fold
- increase in luciferase activity vs DMSO control ([1]; 10 μM): 6.7 fold
- increase in luciferase activity vs DMSO control ([1]; 100 μM): 25.2 fold
- EC50 ([1]; DPX2 cell line, read-out: EC50 for activation of hPXR): ~20 µM
- effect on hepatic PXR target genes ([2]; liver, oral treatment): no significant effect
- Intestinal CYP3A11 expression [2, 6]: no significant change
- Intestinal GSTA1 mRNA increase [2, 6]: 74%
- Intestinal OATP2 mRNA [2, 6]: no significant induction
- intestinal MRP2 mRNA [2, 6]: no change
- AUC compared with RIF ([3]; mice, 10 mg/kg i.v.): -low
- T1/2 compared with RIF ([3]; mouse, in vivo, iv, 10 mg/kg): ultra-short
- Cmax ([3]; mouse, serum, mice, single oral dose 10 mg/kg, read-out: Cmax of serum): 40 nM
- effect on intestinal or hepatic CYP3A4 [4]: no significant effect
- effect on the pharmacokinetics of MDZ and of ethinyl estradiol and norgestimate [4]: did not alter
- change in luciferase activity in the presence of CAR [5]: no significant change
